Reference: US12714715B2, “Agent for treating myopia, preventing myopia and/or suppressing myopia progression” (SANTEN PHARMACEUTICAL CO., LTD., priority 2020, dated 2026)

Assays:
guinea pig myopia model = experiment: Test on suppression of myopia progression (axial length elongation and refractive error) in guinea pig myopia model; format: in vivo, guinea pig (Slc:Hartley); settings: for Difference of axial lengths / Difference of refraction: 10 μL topical to goggled right eye once daily 14 days, right eye − left eye, average n=6; for Difference of axial lengths / Difference of refraction / Suppression rate of axial length elongation / Suppression rate of refractive error: day 14; for Suppression rate of axial length elongation / Suppression rate of refractive error: vs vehicle control group
Method: According to the following procedures, the effect of AFDX0250 on the suppression of myopia progression (the axial length elongation and the refractive error) was evaluated.
AFDX0250 was dissolved in purified water with a buffering agent and a tonicity agent to prepare 0.5% AFDX0250 solution. 1 mol/L sodium hydroxide reagent solution or dilute hydrochloric acid was added to the solution to adjust the pH thereof to neutral. Also, a buffering agent and a tonicity agent were dissolved in purified water to prepare a neutral vehicle. 9.8 mL of the vehicle was mixed with 0.2 mL of 0.5% AFDX0250 solution and stirred to prepare 0.01% AFDX0250 solution. 3 mL, 4 mL and 4.5 mL of the vehicles were mixed with 2 mL, 1 mL and 0.5 mL of 0.01% AFDX0250 solutions, respectively, and stirred to prepare 0.004%, 0.002% and 0.001% AFDX0250 solutions.
A test tube with a diameter of 18 mm was cut off at the level of 10 mm from the bottom, and the cut-off bottom part was glued to one side of Velcro tape (about 20 mm square) with a hole of an appropriate diameter in the center with an adhesive agent to prepare a lens (goggle). 3-week-old guinea pigs (Slc:Hartley) (n=30) were obtained, and the prepared goggle was covered to the right eye of each guinea pig with an adhesive agent to induce myopia to the guinea pigs. The left eye thereof without goggle was used as control.
The […] group, 0.004% AFDX0250 solution administration group, […] group (control group) (n=6 per group). In the AFDX0250 solution administration groups, 10 μL of the AFDX0250 solution in each concentration was topically administered to the right eye of each guinea pig once daily for 14 days from the day when the right eye was covered with the goggle (day 0) to day 13. In the control group, 10 μL of the vehicle was topically administered to the right eye of each guinea pig once daily for 14 days from the day when the right eye was covered with the goggle (day 0) to day 13. In the all groups, 10 μL of the vehicle was topically administered to the left eye at the same frequency of administration as that of each group daily for 14 days from day 0 to day 13. The guinea pigs were reared under a normal rearing condition.
On day 14 from the myopia induction, the axial lengths of right and left eyeballs were measured with an ultrasound axial length measurement device ECHOSCAN US-500 (A-scan) (NIDEK CO., LTD.), and the refractions were measured with the auto refractometer AR-1a (NIDEK CO., LTD.). The difference of axial lengths and the suppression rate of the axial length elongation as well as the difference of refraction and the suppression rate of the refractive error were calculated according to the following formulae. The calculation was performed in Microsoft Excel. Difference of axial lengths (mm)=Axial length of right eye (mm)−Axial length of left eye (mm) Suppression rate of axial length elongation (%)=(1−Difference of axial lengths in AFDX0250 solution administration group/Difference of axial lengths in control group)×100 (Formula) Difference of refraction (D)=Refraction of right eye (D)−Refraction of left eye (D) Suppression rate of refractive error (%)=(1−Difference of refraction in AFDX0250 solution administration group/Difference of refraction in control group)×100 (Formula) (Test Result)
AFDX0250 was dissolved in purified water with a buffering agent and a tonicity agent to prepare 0.5% AFDX0250 solution. 1 mol/L sodium hydroxide reagent solution or dilute hydrochloric acid was added to the solution to adjust the pH thereof to neutral. Also, a buffering agent and a tonicity agent were dissolved in purified water to prepare a neutral vehicle. 4 mL and 4.8 mL of vehicles were mixed with 1 mL and 0.2 mL of 0.5% AFDX0250 solutions, respectively, and stirred to prepare 0.1% and 0.02% of AFDX0250 solutions. Also, 4 mL of the vehicle was mixed with 1 mL of 0.02% AFDX0250 solution and stirred to prepare 0.004% AFDX0250 solution. […]

guinea pigs = experiment: Evaluation of mydriatic action (pupil diameter, pupillary light reflex) after repeated topical administration to one eye; format: in vivo, guinea pig; settings: guinea pig, in vivo
Method: An atropine solution was repeatedly topically administered to one eye of a guinea pig to evaluate the effect of the solution on mydriasis.
Atropine sulfate hydrate and glycerin were dissolved in water for injection to prepare 0.001%, 0.0003% and 0.0001% atropine solutions without adjusting the pH.
Each of the prepared solutions was topically administered to the left eye of guinea pigs (the left eyes of 3 guinea pigs for each solution) in a volume of 10 μL once daily for 5 days. The pupil diameter of each guinea pig was measured before the administration on day 5 as well as 1, 2 and 4 hours after the administration to observe the pupillary light reflex. The measured pupil diameters of each guinea pig at each measurement time were averaged to obtain the average value. The obtained average value was defined as the average pupil diameter. Among each average pupil diameter at each measurement time, the longest diameter was defined as the maximum pupil diameter.

[1] = Comparative Example 1, 0.004% solution
[2] = Comparative Example 1, 0.004% solution, topical once daily 14 days
[3] = Comparative Example 1, 0.02% solution
[4] = Comparative Example 1, 0.02% solution, topical once daily 14 days
[5] = Comparative Example 1, 0.1% solution
[6] = Comparative Example 1, 0.1% solution, topical once daily 14 days
[7] = Comparative Example 1, 0.5% solution
[8] = Comparative Example 1, 0.5% solution, topical once daily 14 days
[9] = Comparative Example 2, 0.004% solution
[10] = Comparative Example 2, 0.004% solution, topical once daily 14 days
[11] = Comparative Example 2, 0.01% solution
[12] = Comparative Example 2, 0.01% solution, topical once daily 14 days
[13] = Comparative Example 2, 0.02% solution
[14] = Comparative Example 2, 0.02% solution, topical once daily 14 days
[15] = Comparative Example 2, 0.1% solution
[16] = Comparative Example 2, 0.1% solution, topical once daily 14 days

Measurement time of maximum pupil diameter (guinea pigs; 5 days): 2 h
SMILES: CCN(CC)CC1CCCCN1CC(=O)N1c2ccccc2C(=O)Nc2cccnc21 (stereo not drawn) [AFDX0116, 11-[2-[2-[(diethylamino)methyl]-1-piperidinyl]acetyl]-5,11-dihydro-6H-pyrido[2,3-b][1,4]benzodiazepin-6-one]
Difference of axial lengths (guinea pig myopia model; [1]): 0.19 mm | Difference of refraction (guinea pig myopia model; [1]): −4.74 D | Suppression rate of axial length elongation (guinea pig myopia model; [2]): 21.14% | Suppression rate of refractive error (guinea pig myopia model; [2]): 45.54% | Difference of axial lengths (guinea pig myopia model; [3]): 0.09 mm | Difference of refraction (guinea pig myopia model; [3]): −2.17 D | Suppression rate of axial length elongation (guinea pig myopia model; [4]): 62.95% | Suppression rate of refractive error (guinea pig myopia model; [4]): 73.10% | Difference of axial lengths (guinea pig myopia model; [5]): 0.09 mm | Difference of refraction (guinea pig myopia model; [5]): −1.90 D | Suppression rate of axial length elongation (guinea pig myopia model; [6]): 63.86% | Suppression rate of refractive error (guinea pig myopia model; [6]): 73.17% | Difference of axial lengths (guinea pig myopia model; [7]): 0.03 mm | Difference of refraction (guinea pig myopia model; [7]): −2.10 D | Suppression rate of axial length elongation (guinea pig myopia model; [8]): 87.73% | Suppression rate of refractive error (guinea pig myopia model; [8]): 75.86% | Difference of axial lengths (guinea pig myopia model; [9]): 0.12 mm | Difference of refraction (guinea pig myopia model; [9]): −6.59 D | Suppression rate of axial length elongation (guinea pig myopia model; [10]): 22.52% | Suppression rate of refractive error (guinea pig myopia model; [10]): 9.96% | Difference of axial lengths (guinea pig myopia model; [11]): 0.12 mm | Difference of refraction (guinea pig myopia model; [11]): −3.61 D | Suppression rate of axial length elongation (guinea pig myopia model; [12]): 21.44% | Suppression rate of refractive error (guinea pig myopia model; [12]): 50.71% | Difference of axial lengths (guinea pig myopia model; [13]): 0.05 mm | Difference of refraction (guinea pig myopia model; [13]): −2.52 D | Suppression rate of axial length elongation (guinea pig myopia model; [14]): 69.73% | Suppression rate of refractive error (guinea pig myopia model; [14]): 65.61% | Difference of axial lengths (guinea pig myopia model; [15]): 0.05 mm | Difference of refraction (guinea pig myopia model; [15]): −2.42 D | Suppression rate of axial length elongation (guinea pig myopia model; [16]): 68.65% | Suppression rate of refractive error (guinea pig myopia model; [16]): 66.87% | Concentration showing the anti-myopic effect (comparison in words) (guinea pig myopia model; Comparative Examples 1 and 2 compared with Examples 1 and 2): higher than that of AFDX0250 | Effect on the axial length elongation and the refractive error (summary in words) (guinea pig myopia model; summary of Examples 1 and 2 (AFDX0250) and Comparative Examples 1 and 2 (AFDX0116), topical once daily 14 days): suppressed the axial length elongation and the refractive error | Mydriatic action (pupil diameter and pupillary light reflex, in words) (guinea pigs): increased the pupil diameter and decreased the pupillary light reflex
